Source: PMC10746053, “Development of Novel Pyrrole Derivatives and Their Cinnamic Hybrids as Dual COX-2/LOX Inhibitors” (Molecules, 2023)
Several values for one entry are separate records, joined by “and”; a condition that tells them apart may be missing. Identical values can stand only once. Like-named read-outs stand apart in the source and are kept apart here. Values belong to the compound of their own block, whether it stands above or below them.

Columns and labels:
[1] = cited from earlier work
COX-1 = conditions: Figure 1; cited from earlier work
COX-2 = conditions: Figure 1; cited from earlier work
paw edema = conditions: Figure 1; cited from earlier work
5-LOX = conditions: Figure 1; cited from earlier work
[2] = Inhibition of linoleic acid lipid peroxidation (AAPH); conditions: 37 °C, ± SD
Source text: It is widely known that oxidative stress can induce lipid peroxidation. One of the major end products of the latter process are lipid-derived aldehydes, such as malondialdehyde (MDA), which is more chemically stable and membrane-permeable than ROS. These lipid aldehydes can participate in cross-linking with DNA and proteins and subsequently facilitate the development of various pathological states. Herein, we used the water-soluble 2,2′-azobis(2-methylpropionamidine) dihydrochloride (AAPH) as a free radical initiator for the in vitro antioxidant assay due to its ability to generate alkylperoxy radicals in the presence of oxygen molecules at 37 °C [53]. […] Pyrroles 1 and 2 with high lipophilicity (ClogP of 1 = 5.7, ClogP of 2 = 5.05; RM of 1 = 0.3076, RM of 2 = 0.0116) and molecular volume (MV of 1 = 318, MV of 2 = 290) values appeared to be weak antioxidants (34% and 33% at 100 μM, respectively). […] The presence of a bulkier substituent Ar^2 decreased the anti-lipid peroxidation activity of 5 (36% at 100 μM) compared to 8 (58% at 100 μM).
In vitro enzymatic assay was conducted as reported in previous studies. 2,2′-Azobis(2-methylpropionamidine) dihydrochloride (AAPH) was used as a controllable source of thermally produced alkylperoxy free radicals. The production of conjugated diene hydroperoxides via the oxidation of sodium linoleate in an aqueous dispersion at 37 °C was monitored at 234 nm. The results were compared to the reference compound, trolox (93%) (Table 2).

[3] = Experimental lipophilicity as RM values by reversed-phase TLC; type: physicochemical; conditions: RPTLC, methanol/water 70/30 v/v, five measurements
Source text: Lipophilicity is one of the most studied physicochemical properties in the drug discovery process and is frequently employed in structure–activity relationship (SAR) studies. It contributes to the ADMET (absorption, distribution, metabolism, excretion, toxicity) properties, solubility, permeability to the potency and efficacy of drugs. […] In TLC, the retention parameter, RF, is defined as the ratio between the migration distances of the compound and of the mobile phase, both measured from the sample application position. The term RM was introduced to facilitate a linear relationship with the log P values, and it is defined as similar to the capacity factor, k, in HPLC.
Reversed-phase thin-layer chromatography (RPTLC) was used for the determination of RM values. Silica gel plates were saturated with 5% v/v liquid paraffin in petroleum ether. The mobile phase consisted of a methanol/water mixture (70/30, v/v). The plates were developed in closed chromatography tanks saturated with the mobile phase. Spots were detected under UV light or after exposure to iodine vapor. RM values were calculated from the corresponding Rf values (from five individual measurements) using […]. RM = log[(1/Rf) − 1], (2) where Rf is obtained by dividing the distance covered by the sample by the distance covered by the mobile phase.

ovine COX-2 [4] = molecular target: T1, ovine COX-2 (Ovis aries, UniProt P79208); assay: Inhibition of ovine cyclooxygenase-2 (TMPD co-substrate); conditions: for inhibition at 100 µM: read-out: COX-2 Inh. % at 100 μM, 100 μM, ovine COX-2
T1 sequence (P79208 17-603): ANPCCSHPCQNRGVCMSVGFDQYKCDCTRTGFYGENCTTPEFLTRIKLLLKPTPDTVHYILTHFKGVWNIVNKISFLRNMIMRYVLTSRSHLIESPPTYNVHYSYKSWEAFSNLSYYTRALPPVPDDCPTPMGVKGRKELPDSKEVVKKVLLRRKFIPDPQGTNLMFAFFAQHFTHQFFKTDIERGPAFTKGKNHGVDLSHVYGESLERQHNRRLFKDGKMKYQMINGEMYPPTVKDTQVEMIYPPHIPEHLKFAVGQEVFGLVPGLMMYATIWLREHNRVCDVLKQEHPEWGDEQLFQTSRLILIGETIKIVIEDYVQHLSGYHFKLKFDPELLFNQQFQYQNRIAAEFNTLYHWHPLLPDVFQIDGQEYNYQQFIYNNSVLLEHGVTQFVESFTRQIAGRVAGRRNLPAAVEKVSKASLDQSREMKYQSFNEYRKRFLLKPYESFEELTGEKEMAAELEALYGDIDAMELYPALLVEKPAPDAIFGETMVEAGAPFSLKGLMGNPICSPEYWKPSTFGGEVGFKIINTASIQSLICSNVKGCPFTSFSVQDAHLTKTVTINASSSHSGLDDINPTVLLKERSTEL
Procedure: The oxidized TMPD has an absorbance maximum at 590 nm. COXs require heme (Fe^3+-protoporphyrin IX) as a cofactor which may dissociate from the protein during its purification. Therefore, in the in vitro enzymatic assay of ovine COX-2 inhibition, heme is added to ensure maximal enzyme activity [54]. […] The in vitro COX-2 inhibitory activity was determined using arachidonic acid (AA) as a substrate and N,N,N′,N′-tetramethyl-p-phenylenediamine (TMPD) as a co-substrate in a buffer solution of Tris:HCl (pH 8.5) [27]. Ten microliters of the DMSO solution of the compound of interest were added in a test tube containing 730 μL of buffer Tris:HCl (pH 8.5), 50 μL of heme, 10 μL of COX-2 and 100 μL of TMPD. […] A blank determination was used first to serve as a negative control.

[5] = molecular target: T2, soybean lipoxygenase isoenzyme-1 (SLOX-1) (Glycine max, UniProt P08170); assay: Inhibition of soybean lipoxygenase in vitro; type: biochemical; conditions: soybean LOX; for IC50: pH 9.00, ± SD, read-out: LOX Inh. IC50
T2 construct: purchased Sigma Chemical, Co. (St. Louis, MO, USA)
T2 sequence (P08170 1-839): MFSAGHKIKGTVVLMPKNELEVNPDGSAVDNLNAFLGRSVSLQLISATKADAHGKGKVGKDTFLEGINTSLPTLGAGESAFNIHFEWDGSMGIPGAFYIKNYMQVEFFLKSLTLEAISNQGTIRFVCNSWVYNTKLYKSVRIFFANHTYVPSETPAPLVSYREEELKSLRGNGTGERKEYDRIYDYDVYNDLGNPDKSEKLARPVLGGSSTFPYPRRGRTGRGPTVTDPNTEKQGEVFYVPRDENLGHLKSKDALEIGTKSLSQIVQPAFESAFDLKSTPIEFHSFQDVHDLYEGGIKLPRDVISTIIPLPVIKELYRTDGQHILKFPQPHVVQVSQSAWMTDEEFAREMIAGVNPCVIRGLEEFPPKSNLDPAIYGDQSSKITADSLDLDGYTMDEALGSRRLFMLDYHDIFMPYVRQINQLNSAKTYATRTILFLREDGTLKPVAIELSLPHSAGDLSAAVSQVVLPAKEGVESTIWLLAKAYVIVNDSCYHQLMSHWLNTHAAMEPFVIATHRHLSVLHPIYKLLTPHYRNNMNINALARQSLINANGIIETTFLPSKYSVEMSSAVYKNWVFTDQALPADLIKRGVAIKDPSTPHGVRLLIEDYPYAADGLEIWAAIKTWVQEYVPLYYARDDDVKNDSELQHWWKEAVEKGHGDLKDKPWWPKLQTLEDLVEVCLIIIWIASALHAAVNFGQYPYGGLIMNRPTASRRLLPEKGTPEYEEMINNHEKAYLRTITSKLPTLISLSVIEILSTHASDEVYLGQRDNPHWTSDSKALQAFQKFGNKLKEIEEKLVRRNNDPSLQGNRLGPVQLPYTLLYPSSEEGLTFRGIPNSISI
Procedure: In vitro anti-LOX activities were measured against soybean lipoxygenase isoenzyme-1 (SLOX-1), which is widely used as a model for mammalian LOXs.
An in vitro study was conducted as reported previously. The tested compounds were dissolved in DMSO (100 µM) and incubated at room temperature with sodium linoleate (0.1 mL) as a substrate and 0.2 mL of a soybean lipoxygenase solution in a buffer solution of Tris:HCl (pH 9.00).

[6] = design: method as in doi:10.3390/M1314; conditions: Molinspiration software; cited from earlier work
[7] = design: method as in doi:10.3390/M1314; conditions: RPTLC; cited from earlier work
ovine COX-2 [8] = molecular target: T1, ovine COX-2; design: purchased Cayman; conditions: read-out: COX-2 Inh. IC50; cited from earlier work
[9] = molecular target: T2, soybean lipoxygenase isoenzyme-1 (SLOX-1); conditions: soybean LOX; read-out: LOX Inh. IC50; cited from earlier work

Compound: O=C(O)/C=C/c1ccccc1 [Cinnamic acid, reference compound]
- ILP % at 100 μM (inhibition of lipid peroxidation) [1]: 78 ± 3.2%

Compound: COc1ccc(C=NNC(=O)c2sc3ccccc3c2Cl)cc1OC [III]
- IC50 (COX-1): 2.9 µM
- IC50 (COX-2): 0.68 µM
- % paw edema reduction (in vivo) (paw edema): 89.8%
- IC50 (5-LOX): 1.87 µM

Compound: COc1ccc(/C=C2\SC(=S)N(NC(=O)c3sc4ccccc4c3Cl)C2=O)cc1OC [II]
- IC50 (COX-1): 3.4 µM
- % paw edema reduction (in vivo) (paw edema): 93.26%
- IC50 (5-LOX): 2.33 µM

Compound: Cc1ccc(C(C)C)c(O)c1/C=N/NC(=O)c1cc(-c2ccccc2)n[nH]1 [IV]
- IC50 (COX-1): 10.3 ± 0.1 µM
- IC50 (COX-2): 0.068 ± 0.01 µM
- % paw edema reduction (in vivo) (paw edema): 81.93%
- IC50 (5-LOX): 3.05 ± 0.067 µM

Compound: COc1cc(/C=c2\c(=O)[nH]n3c(=O)c4ccccc4nc23)cc(OC)c1OC [I]
- IC50 (COX-1): 0.668 ± 0.0212 µM
- IC50 (COX-2): 0.047 ± 0.0027 µM
- IC50 (5-LOX): 2.3 ± 0.13 µM

Compound: Cc1c(C)c2c(c(C)c1O)CCC(C)(C(=O)O)O2 (centres unmarked) [Trolox, reference compound]
- ILP % at 100 μM (inhibition of lipid peroxidation) [2]: 93 ± 2.5%

- RM [3]: 0.3076
- IC50 (ovine COX-2 [4]): 10 ± 0.8 µM
- IC50 [5]: 51.5 ± 1.7 µM
Compound: CN(C)c1ccc(/C=C/c2c[nH]cc2C(=O)c2ccc(Cl)cc2)cc1 [compound 1, (E)-(4-chlorophenyl) (4-(4-(dimethylamino)styryl)-1H-pyrrol-3-yl)methanone]
- ILP % at 100 μM (inhibition of lipid peroxidation) ([2]; 100 µM): 34% and 33.8 ± 1.3%

- RM [3]: 0.0116
- inhibition at 100 µM (ovine COX-2 [4]): 17%
- IC50 [5]: 7.5 ± 0.5 µM
Compound: CN(C)c1ccc(-c2c[nH]cc2C(=O)c2ccc(Cl)cc2)cc1 [compound 2, (4-chlorophenyl) (4-(4-(dimethylamino)phenyl)-1H-pyrrol-3-yl) methanone]
- ILP % at 100 μM (inhibition of lipid peroxidation) ([2]; 100 µM): 33% and 32.8 ± 0.8%

- RM [3]: −0.3340
- inhibition at 100 µM (ovine COX-2 [4]): 12%
- inhibition at 100 µM ([5]; pH 9, 100 μM, pH 9.00, read-out: LOX Inh. % at 100 μM): 43%
Compound: CN(C)c1ccc(-c2c[nH]cc2C(=O)c2cccs2)cc1 [compound 3, (4-(4-(dimethylamino)phenyl)-1H-pyrrol-3-yl) (thiophen-2-yl) methanone]
- ILP % at 100 μM (inhibition of lipid peroxidation) [2]: inactive
- ILP % at 100 μM (inhibition of lipid peroxidation) ([2]; 100 µM): no action at all and no

Compound: O=C(c1ccccc1)c1c[nH]cc1-c1ccccc1 [compound 4]
- miLogP [6]: 3.96
- ILP % at 100 μM (inhibition of lipid peroxidation) ([1]; 100 µM): 44% and 44.3 ± 1.1%
- RM [7]: −0.4102
- IC50 (ovine COX-2 [8]): 0.65 ± 0.1 µM
- IC50 [9]: 100 ± 3.3 µM

- RM [3]: −0.4174
- IC50 (ovine COX-2 [4]): 0.55 ± 0.3 µM
- IC50 [5]: 30 ± 1.6 µM
Compound: CN(C)c1ccc(/C=C/c2cn(C(=O)/C=C/c3ccccc3)cc2C(=O)c2ccccc2)cc1 [compound 5, (E)-1-(3-benzoyl-4-((E)-4-(dimethylamino)styryl)-1H-pyrrol-1-yl)-3-phenylprop-2-en-1-one]
- ILP % at 100 μM (inhibition of lipid peroxidation) ([2]; 100 µM): 36% and 36.4 ± 0.4%

- RM [3]: −0.4771
- IC50 (ovine COX-2 [4]): 7 ± 0.6 µM
- IC50 [5]: 27.5 ± 1.3 µM
Compound: CN(C)c1ccc(-c2cn(C(=O)/C=C/c3ccccc3)cc2C(=O)c2ccc(Cl)cc2)cc1 [compound 6, (E)-1-(3-(4-chlorobenzoyl)-4-(4-(dimethylamino)phenyl)-1H-pyrrol-1-yl)-3-phenylprop-2-en-1-one]
- ILP % at 100 μM (inhibition of lipid peroxidation) ([2]; 100 µM): 62% and 61.6 ± 2.3%

- IC50 (ovine COX-2 [4]): 7.2 ± 0.3 µM
- IC50 [5]: 35 ± 1.6 µM
Compound: CN(C)c1ccc(-c2cn(C(=O)/C=C/c3ccccc3)cc2C(=O)c2cccs2)cc1 [compound 7, (E)-1-(3-(4-(dimethylamino)phenyl)-4-(thiophene-2-carbonyl)-1H-pyrrol-1-yl)-3-phenylprop-2-en-1-one]
- ILP % at 100 μM (inhibition of lipid peroxidation) ([2]; 100 µM): 31% and 31.1 ± 1.1%

Compound: O=C(c1ccccc1)c1cn(C(=O)/C=C/c2ccccc2)cc1-c1ccccc1 [compound 8, (E)-1-(3-Benzoyl-4-Phenyl-1H-Pyrrol-1-Yl)-3-Phenylprop-2-En-1-One]
- miLogP [6]: 6.26
- ILP % at 100 μM (inhibition of lipid peroxidation) ([1]; 100 µM): 58% and 58.1 ± 1.8%
- RM [7]: −0.4771
- IC50 (ovine COX-2 [8]): 6 ± 0.1 µM
- IC50 [9]: 39 ± 2.3 µM
